Assay results as given in patent US20100331315A1, “RHODANINES AND RELATED HETEROCYCLES AS KINASE INHIBITORS” (priority 2009, published 2010).
Read-outs that look alike come from different tables or passages of the source.

How the values were obtained:
recombinant human CK2 = target: T1, recombinant human CK2 (Homo sapiens, UniProt P68400); test: CK2 assay (cell-free, 33P-ATP filter plate); format: biochemical
T1 construct: purchased Upstate
Experimental: Modulatory activity of compounds described herein was assessed in vitro in cell-free CK2 assays by the following method.
Test compounds in aqueous solution were added at a volume of 10 microliters, to a reaction mixture comprising 10 microliters Assay Dilution Buffer (ADB; 20 mM MOPS, pH 7.2, 25 mM beta-glycerolphosphate, 5 mM EGTA, 1 mM sodium orthovanadate and 1 mM dithiothreitol), 10 microliters of substrate peptide (RRRDDDSDDD, dissolved in ADB at a concentration of 1 mM), 10 microliters of recombinant human CK2 (25 ng dissolved in ADB; Upstate). Reactions were initiated by the addition of 10 microliters of ATP Solution (90% 75 mM MgCl2, 75 micromolar ATP dissolved in ADB; 10% [γ-^33P]ATP (stock 1 mCi/100 μl; 3000 Ci/mmol (Perkin Elmer) and maintained for 10 minutes at 30 degrees C. The reactions were quenched with 100 microliters of 0.75% phosphoric acid, then transferred to and filtered through a phosphocellulose filter plate (Millipore). After washing each well 5 times with 0.75% phosphoric acid, the plate was dried under vacuum for 5 min and, following the addition of 15 ul of scintillation fluid to each well, the residual radioactivity was measured using a Wallac luminescence counter.

recombinant human PIM2 = recombinant human PIM2 (Homo sapiens, UniProt Q9P1W9); test: PIM-2 assay (33P-ATP filter plate); format: biochemical; conditions: for IC50: Table 5; for inhibition at 2.5 µM: Table 6, read-out: PIM2: % inh @ 2.5 uM
Experimental: PIM-2 Assay Method: Test compounds dissolved and diluted in DMSO (2 μl) were added to a reaction mixture comprising 10 μl of 5× Reaction Buffer (40 mM MOPS pH 7.0, 5 mM EDTA), 10 μl of recombinant human PIM2 solution (4 ng PIM-2 dissolved in dilution buffer (20 mM MOPS pH 7.0; EDTA 1 mM; 5% Glycerol; 0.01% Brij 35; […]; […] 2-mercaptoethanol; 1 mg/ml BSA)) and 8 ul of water. Reactions were initiated by the addition of 10 ul of ATP Solution (49% (15 mM MgCl2; 75 uM ATP) 1% ([γ-^33P]ATP: Stock 1 mCi/1000; 3000Ci/mmol (Perkin Elmer)) and 10 ul of substrate peptide solution (RSRSSYPAGT, dissolved in water at a concentration of 1 mM), Reactions were maintained for 10 min at 30° C. The reactions were quenched with 100 ul of 0.75% Phosphoric acid, then transferred to and filtered through a Phosphocellulose filter plate (Millipore, MSPH-N6B-50). After washing each well 4 times with 0.75% Phosphoric acid, scintillation fluid (20 uL) was added to each well and the residual radioactivity was measured using a Wallac luminescence counter.

K-562 = test: Alamar Blue cell proliferation assay, K-562; format: cell-based; conditions: Homo sapiens, K562, K-562, Table 5, read-out: AB: K-562 IC50
Experimental: (§1) A representative cell-proliferation assay protocol using Alamar Blue dye (stored at 4° C., use 20 ul per well) is described hereafter.
(§2) a. Split and trypsinize cells.
(§3) b. Count cells using hemocytometer.
(§4) c. Plate 4,000-5,000 cells per well in 100 μl of medium and seed into a 96-well plate according to the following plate layout. Add cell culture medium only to wells B10 to B12. Wells B1 to B9 have cells but no compound added.
(§5) d. Add 100 μl of 2× drug dilution to each well in a concentration shown in the plate layout above. At the same time, add 100 μl of media into the control wells (wells B10 to B12). Total volume is 200 μl/well.
(§6) e. Incubate four (4) days at 37° C., 5% CO2 in a humidified incubator.
(§7) f. Add 20 μl Alamar Blue reagent to each well.
(§8) g. Incubate for four (4) hours at 37° C., 5% CO2 in a humidified incubator.
(§9) h. Record fluorescence at an excitation wavelength of 544 nm and emission wavelength of 590 nm using a microplate reader.
(§10) In the assays, cells are cultured with a test compound for approximately four days, the dye is then added to the cells and fluorescence of […] dye is detected after approximately four hours. Different types of cells can be utilized in the assays (e.g., HCT-116 human colorectal carcinoma cells, PC-3 human prostatic cancer cells and MiaPaca human pancreatic carcinoma cells).

MV-4-11 = test: Alamar Blue cell proliferation assay, MV-4-11; format: cell-based; conditions: Homo sapiens, MV4-11, MV-4-11, Table 5, read-out: AB: MV-4-11 IC50
Experimental: as §1, §2, §3, §4, §5, §6, §7, §8, §9, §10

BxPC3 = test: Alamar Blue cell proliferation assay, BxPC3; format: cell-based; conditions: Homo sapiens
Experimental: as §1, §2, §3, §4, §5, §6, §7, §8, §9, §10

MDAMB453 = test: Alamar Blue cell proliferation assay, MDAMB453; format: cell-based; conditions: Homo sapiens
Experimental: as §1, §2, §3, §4, §5, §6, §7, §8, §9, §10

SUM-149PT = test: Alamar Blue cell proliferation assay, SUM-149PT; format: cell-based; conditions: Homo sapiens, SUM149PT
Experimental: as §1, §2, §3, §4, §5, §6, §7, §8, §9, §10

[1] = BXPC-3, BxPC3, Table 5, read-out: AB: BxPC3 IC50
[2] = MDA-MB-453, MDAMB453, Table 5, read-out: AB: MDAMB453 IC50
[3] = Table 5, read-out: AB: SUM-149PT IC50
[4] = BXPC-3, BxPC3, Table 6, read-out: AB: BxPC3 IC50
[5] = MDA-MB-453, MDAMB453, Table 6, read-out: AB: MDAMB453 IC50
[6] = Table 6, read-out: AB: SUM-149PT IC50

T1 sequence (P68400 whole entry): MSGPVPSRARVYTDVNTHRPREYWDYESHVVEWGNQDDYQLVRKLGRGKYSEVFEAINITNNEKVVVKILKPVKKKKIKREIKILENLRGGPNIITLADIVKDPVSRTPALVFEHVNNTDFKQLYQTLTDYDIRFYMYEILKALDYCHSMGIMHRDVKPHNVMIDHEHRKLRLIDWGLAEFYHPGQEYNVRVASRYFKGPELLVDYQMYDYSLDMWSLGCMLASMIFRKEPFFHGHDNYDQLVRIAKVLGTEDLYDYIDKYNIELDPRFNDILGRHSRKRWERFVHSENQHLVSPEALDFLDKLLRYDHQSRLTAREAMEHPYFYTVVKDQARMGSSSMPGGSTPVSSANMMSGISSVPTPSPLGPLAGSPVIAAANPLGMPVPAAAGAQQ
T1 sequence (P67870 whole entry partner): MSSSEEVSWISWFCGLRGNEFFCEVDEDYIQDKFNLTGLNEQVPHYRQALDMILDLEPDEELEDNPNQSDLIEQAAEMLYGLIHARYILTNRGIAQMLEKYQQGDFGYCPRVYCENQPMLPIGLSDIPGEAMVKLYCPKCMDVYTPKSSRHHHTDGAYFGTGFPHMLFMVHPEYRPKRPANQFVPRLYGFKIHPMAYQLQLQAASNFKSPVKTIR
recombinant human PIM2, sequence (Q9P1W9 whole entry): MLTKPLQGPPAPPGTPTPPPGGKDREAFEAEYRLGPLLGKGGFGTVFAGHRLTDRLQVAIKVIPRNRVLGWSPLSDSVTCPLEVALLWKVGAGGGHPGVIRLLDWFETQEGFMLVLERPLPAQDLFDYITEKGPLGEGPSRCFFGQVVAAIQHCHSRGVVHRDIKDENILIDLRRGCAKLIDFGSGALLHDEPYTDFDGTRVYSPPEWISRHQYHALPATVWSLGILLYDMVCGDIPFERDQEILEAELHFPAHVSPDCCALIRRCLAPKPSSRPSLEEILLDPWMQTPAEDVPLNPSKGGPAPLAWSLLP

SMILES | IC50 (recombinant human CK2; Table 5) [µM] | IC50 (recombinant human PIM2) [µM] | IC50 (K-562) [µM] | IC50 (MV-4-11) [µM] | IC50 (BxPC3; [1]) [µM] | IC50 (MDAMB453; [2]) [µM] | IC50 (SUM-149PT; [3]) [µM] | IC50 (recombinant human CK2; Table 6) [µM] | inhibition at 2.5 µM (recombinant human PIM2) [%] | IC50 (BxPC3; [4]) [µM] | IC50 (MDAMB453; [5]) [µM] | IC50 (SUM-149PT; [6]) [µM]
CC(C)(C)CC(=O)N1CCCN(c2cncc(-c3cc(/C=C4/SC(=O)NC4=O)ccc3F)n2)CC1 | < 0.05 | < 0.05 | 1.21 | 3.23 | 10.2 | 2.76 | 1.46 | – | – | – | – | –
O=C1NC(=O)/C(=C\c2ccc(F)c(-c3cncc(N4CCCN(C(=O)C5CC5)CC4)n3)c2)S1 | < 0.05 | < 0.05 | 0.321 | 2.78 | 23.1 | 4.09 | 3.94 | – | – | – | – | –
CCOC(=O)N1CCCN(c2cncc(-c3cc(/C=C4/SC(=O)NC4=O)ccc3F)n2)CC1 | < 0.05 | < 0.05 | 3.58 | 3.88 | 22.7 | 10.9 | 4.18 | – | – | – | – | –
CC(C)(C)C(=O)N1CCCN(c2cncc(-c3cc(/C=C4/SC(=O)NC4=O)ccc3F)n2)CC1 | < 0.05 | < 0.05 | 0.316 | 0.374 | 12.7 | 0.318 | 1.02 | – | – | – | – | –
COC(=O)N1CCCN(c2cncc(-c3cc(/C=C4/SC(=O)NC4=O)ccc3F)n2)CC1 | < 0.05 | < 0.05 | 3.65 | 2.52 | 18.9 | 3.59 | 2.05 | – | – | – | – | –
O=C1NC(=O)/C(=C/c2cc(-c3cncc(N4CCCNCC4)n3)cs2)S1 | – | – | – | – | – | – | – | 0.00439 | 99.9 | > 30 | 27.7 | 25.2
O=C1NC(=O)/C(=C\c2ccc(F)c(-c3cncc(N4CCCN(C(=O)c5ccccc5F)CC4)n3)c2)S1 | < 0.05 | < 0.05 | 1.6 | 3.11 | 20 | 2.69 | 2.61 | – | – | – | – | –
COc1ccc(/C=C2\SC(=O)NC2=O)cc1-c1cncc(N2CCCNCC2)n1 | – | – | – | – | – | – | – | 0.472 | 98.5 | – | – | –
O=C1NC(=O)/C(=C\c2ccc(F)c(-c3cncc(N4CCCN(C(=O)Nc5ccccc5)CC4)n3)c2)S1 | < 0.05 | < 0.05 | 4.3 | > 10 | 18.8 | 10 | 6.15 | – | – | – | – | –
O=C1NC(=O)/C(=C\c2ccc(F)c(-c3cncc(N4CCCN(C(=O)OCc5ccccc5)CC4)n3)c2)S1 | < 0.05 | < 0.05 | 2.57 | 3.49 | 24.9 | 3.98 | 8.28 | – | – | – | – | –
C[C@H](Nc1cncc(-c2csc(/C=C3\SC(=O)NC3=O)c2)n1)C1CC1 | – | – | – | – | – | – | – | 0.024 | 99.4 | 16.7 | 19.2 | 8.72
